Reference: patent publication US20250115597A1, “TYK2 INHIBITORS AND COMPOSITIONS AND METHODS THEREOF” (LYNK PHARMACEUTICALS CO. LTD., priority 2021, published 2025)
pIC50: −log10 of the molar value.

Key:
TYK2-JH2 domain = target: T1, TYK2-JH2 domain (Homo sapiens, UniProt P29597); experiment: Binding activity test for JH2 domain of TYK2 (Tb-antibody/tracer FRET); details: for JAK1/TYK2 selectivity: ratio JAK1-JH2 IC50 / TYK2-JH2 IC50
T1 construct: IC50 on JH2 domain activity (nM)
How it was run: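 Compounds tested as 11-point 3-fold serial dilutions against the JH2 domain in a Tb-antibody/tracer FRET binding format. Plates incubated 60 min at 25° C, then overnight at 4° C, before FRET reading.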

JAK1-JH2 domain = target: T2, JAK1-JH2 domain (Homo sapiens, UniProt P23458); experiment: Binding activity test for JH2 domain of JAK1 (Tb-antibody/tracer FRET)
T2 construct: IC50 on JH2 domain activity (nM)
T2 sequence (P23458 583-855 limits assumed): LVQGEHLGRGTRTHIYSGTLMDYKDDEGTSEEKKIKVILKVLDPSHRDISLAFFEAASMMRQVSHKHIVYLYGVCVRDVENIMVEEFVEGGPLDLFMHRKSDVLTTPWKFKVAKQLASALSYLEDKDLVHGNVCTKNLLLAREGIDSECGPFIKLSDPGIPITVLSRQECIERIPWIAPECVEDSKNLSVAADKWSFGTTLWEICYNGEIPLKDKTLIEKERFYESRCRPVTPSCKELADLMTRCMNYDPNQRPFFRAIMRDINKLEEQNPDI
Experimental: Binding Activity Test for […] Domain of JAK1 and TYK2 The compounds are prepared in DMSO for 200× top dose, then serial dilute it with 27-fold for 3 more points. Add 8 μL/well in echo source plate, echo will add 75 nL/well with 3-fold serial dilution for 11 points in assay plate. 75 nL DMSO for high control and low control. […] For low control, add 5 μL/well assay buffer. And then spin down at 1000 rpm and centrifuge for 30 seconds. After enzyme system prepared, add 5 μL of Tb-antibody solution into each wells of assay plate. Spin down at 1000 rpm and centrifuge for 30 sec. After Tb-antibody added, also add 5 μL of tracer into the assay plate. Spin down at 1000 rpm and centrifuge for 30 sec. Incubate for 60 mins at 25° C. firstly and then continue to incubate the plate at 4° C. overnight. Read by envision in FRET mode. The Luminescence value was recorded by a multi-label reader Envision (PerkinElmer).

[1] = target: T3, Ba/F3-FL-TYK2-P760L cells (Homo sapiens, UniProt P29597, P760L, cells depend on it); experiment: Anti-proliferative assay, Ba/F3-FL-TYK2-P760L cells (Cell-Titer Glo); assay type: cell-based; details: 72 h, read-out: BaF3-FL-T2P760L IC50
T3 construct: BaF3-FL-T2P760L (nM)
T3 sequence (P29597 whole entry P760L): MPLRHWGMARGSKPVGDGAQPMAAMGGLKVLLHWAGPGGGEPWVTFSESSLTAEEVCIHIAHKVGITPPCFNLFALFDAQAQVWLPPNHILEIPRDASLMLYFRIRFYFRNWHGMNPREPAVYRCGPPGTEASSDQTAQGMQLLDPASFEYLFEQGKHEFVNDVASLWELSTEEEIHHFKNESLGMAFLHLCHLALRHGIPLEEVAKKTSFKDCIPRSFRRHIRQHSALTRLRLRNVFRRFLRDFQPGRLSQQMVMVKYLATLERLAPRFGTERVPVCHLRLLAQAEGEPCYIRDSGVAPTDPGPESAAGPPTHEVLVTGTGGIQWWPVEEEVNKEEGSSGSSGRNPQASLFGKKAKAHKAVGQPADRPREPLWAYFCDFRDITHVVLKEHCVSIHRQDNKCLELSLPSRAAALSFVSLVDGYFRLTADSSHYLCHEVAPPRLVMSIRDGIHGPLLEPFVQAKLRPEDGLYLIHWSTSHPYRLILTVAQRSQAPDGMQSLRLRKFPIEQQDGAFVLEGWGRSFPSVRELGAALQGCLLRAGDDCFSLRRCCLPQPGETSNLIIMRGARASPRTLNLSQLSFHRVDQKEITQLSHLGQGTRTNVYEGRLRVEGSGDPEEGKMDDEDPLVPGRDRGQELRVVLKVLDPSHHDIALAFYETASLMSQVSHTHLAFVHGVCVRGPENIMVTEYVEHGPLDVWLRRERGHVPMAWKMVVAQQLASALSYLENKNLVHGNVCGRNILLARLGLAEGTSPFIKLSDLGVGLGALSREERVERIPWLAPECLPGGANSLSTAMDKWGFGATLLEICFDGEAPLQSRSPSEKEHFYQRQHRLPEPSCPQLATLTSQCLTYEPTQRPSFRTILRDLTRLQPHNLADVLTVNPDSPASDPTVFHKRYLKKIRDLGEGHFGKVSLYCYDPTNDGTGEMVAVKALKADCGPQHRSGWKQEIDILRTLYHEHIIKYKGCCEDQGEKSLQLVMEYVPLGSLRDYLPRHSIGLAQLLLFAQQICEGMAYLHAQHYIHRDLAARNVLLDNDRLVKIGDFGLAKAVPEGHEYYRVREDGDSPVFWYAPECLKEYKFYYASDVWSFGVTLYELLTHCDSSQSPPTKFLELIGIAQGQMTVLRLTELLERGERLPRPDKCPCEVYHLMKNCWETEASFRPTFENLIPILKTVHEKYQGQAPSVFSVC
How it was run: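 Ba/F3 cells made IL-3-independent by TEL-fused or full-length mutant JAK-family kinases, seeded at 2000/well and dosed after 24 h with 9 three-fold dilutions topping at 20 μM. Viability after 72 h at 37 °C, 5% CO2 by Cell-Titer Glo ATP luminescence.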

T1 sequence (P29597 589-875 limits assumed): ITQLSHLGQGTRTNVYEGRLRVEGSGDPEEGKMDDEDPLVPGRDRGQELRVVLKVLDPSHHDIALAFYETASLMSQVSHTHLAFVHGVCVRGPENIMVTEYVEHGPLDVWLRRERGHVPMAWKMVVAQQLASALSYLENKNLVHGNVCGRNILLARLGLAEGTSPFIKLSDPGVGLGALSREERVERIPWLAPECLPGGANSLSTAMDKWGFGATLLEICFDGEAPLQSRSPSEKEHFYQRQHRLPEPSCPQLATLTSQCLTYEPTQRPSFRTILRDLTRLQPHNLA

With [2H]C([2H])([2H])NC(=O)c1cnc(Nc2ccn(C)n2)cc1Nc1ccn2ncc(C#N)c2c1OC [Example 240, 4-((3-Cyano-4-methoxypyrazolo[1,5-a]pyridin-5-yl)amino)-N-(methyl-d3)-6-((1-methyl-1H-pyrazol-3-yl)amino)nicotinamide] the pIC50 (TYK2-JH2 domain) was 9.59, the JAK1/TYK2 selectivity (TYK2-JH2 domain) was 19.5 and the pIC50 (JAK1-JH2 domain) was 8.29. It also gave a GI50 [1] of 70.7 nM.

[2H]C([2H])([2H])NC(=O)c1cnc(NC(=O)C2CC2)cc1Nc1ccc2cnn(C(C)C#N)c2c1OC (single isomer, unassigned) [Example 249A, (R*)-4-((1-(1-cyanoethyl)-7-methoxy-1H-indazol-6-yl)amino)-6-(cyclopropanecarboxamido)-N-(methyl-d3)nicotinamide] showed a pIC50 (TYK2-JH2 domain) of 9.15, a JAK1/TYK2 selectivity (TYK2-JH2 domain) of 25.15 and a pIC50 (JAK1-JH2 domain) of 7.75. For the same compound, the GI50 [1] was 495 nM.

In the case of [2H]C([2H])([2H])NC(=O)c1cnc(NC(=O)CC)cc1Nc1ccc2cnn(CC)c2c1OC [Example 229, 4-((1-Ethyl-7-methoxy-1H-indazol-6-yl)amino)-N-(methyl-d3)-6-propionamidonicotinamide], the pIC50 (TYK2-JH2 domain) was 8.77, the JAK1/TYK2 selectivity (TYK2-JH2 domain) was 62.5 and the pIC50 (JAK1-JH2 domain) was 6.98. The GI50 [1] was 564 nM.

For [2H]C([2H])([2H])NC(=O)c1cnc(Nc2ccc(F)cn2)cc1Nc1ncc2cnn(C([2H])([2H])[2H])c2c1OC [Example 277, 6-((5-Fluoropyridin-2-yl)amino)-4-((7-methoxy-1-(methyl-d3)-1H-pyrazolo[4,3-c]pyridin-6-yl)amino)-N-(methyl-d3)nicotinamide], the pIC50 (TYK2-JH2 domain) was 8.96, the JAK1/TYK2 selectivity (TYK2-JH2 domain) was 55.5 and the pIC50 (JAK1-JH2 domain) was 7.21. The GI50 [1] was 60.2 nM.

With [2H]C([2H])([2H])NC(=O)c1cnc(NC(=O)C2CC2)cc1Nc1ccn2ncc(C(C)C#N)c2c1OC (single isomer, unassigned) [Example 251B, (S*)-4-((3-(1-cyanoethyl)-4-methoxypyrazolo[1,5-a]pyridin-5-yl)amino)-6-(cyclopropanecarboxamido)-N-(methyl-d3)nicotinamide] the pIC50 (TYK2-JH2 domain) was 9.58, the JAK1/TYK2 selectivity (TYK2-JH2 domain) was 17.30 and the pIC50 (JAK1-JH2 domain) was 8.34. The GI50 [1] was 103 nM.

[2H]C([2H])([2H])NC(=O)c1cnc(NC(C)=O)cc1Nc1ccc2cnn(CC)c2c1OC [Example 230, 6-Acetamido-4-((1-ethyl-7-methoxy-1H-indazol-6-yl)amino)-N-(methyl-d3)nicotinamide] was tested, and the pIC50 (TYK2-JH2 domain) was 8.52, the JAK1/TYK2 selectivity (TYK2-JH2 domain) was 19.5 and the pIC50 (JAK1-JH2 domain) was 7.23. It also gave a GI50 [1] of 478 nM.

Work on [2H]C([2H])([2H])NC(=O)c1cnc(NC(=O)C2CC2)cc1Nc1ccn2ncc(C(C)C#N)c2c1OC (single isomer, unassigned) [Example 251A, (R*)-4-((3-(1-cyanoethyl)-4-methoxypyrazolo[1,5-a]pyridin-5-yl)amino)-6-(cyclopropanecarboxamido)-N-(methyl-d3)nicotinamide] yielded a pIC50 (TYK2-JH2 domain) of 8.99, a JAK1/TYK2 selectivity (TYK2-JH2 domain) of 94.03 and a pIC50 (JAK1-JH2 domain) of 7.01. For the same compound, the GI50 [1] was 541 nM.

[2H]C([2H])([2H])NC(=O)c1cnc(Nc2ccc(N3CCOCC3)cn2)cc1Nc1ccc2cnn(CC)c2c1OC [Example 273, 4-((1-Ethyl-7-methoxy-1H-indazol-6-yl)amino)-N-(methyl-d3)-6-((5-morpholinopyridin-2-yl)amino)nicotinamide] gave a pIC50 (TYK2-JH2 domain) of 9.78, a JAK1/TYK2 selectivity (TYK2-JH2 domain) of 16.1 and a pIC50 (JAK1-JH2 domain) of 8.57. It also gave a GI50 [1] of 28.4 nM.

Work on [2H]C([2H])([2H])NC(=O)c1cnc(NC(=O)C2CC2)cc1Nc1ccn2nccc2c1OC [Example 258, 6-(Cyclopropanecarboxamido)-4-((4-methoxypyrazolo[1,5-a]pyridin-5-yl)amino)-N-(methyl-d3)nicotinamide] yielded a pIC50 (TYK2-JH2 domain) of 9.08, a JAK1/TYK2 selectivity (TYK2-JH2 domain) of 17.9 and a pIC50 (JAK1-JH2 domain) of 7.83. For the same compound, the GI50 [1] was 205 nM.

[2H]C([2H])([2H])NC(=O)c1cnc(NC(=O)C2CC2)cc1Nc1ccn2ncc(F)c2c1OC [Example 253, 6-(Cyclopropanecarboxamido)-4-((3-fluoro-4-methoxypyrazolo[1,5-a]pyridin-5-yl)amino)-N-(methyl-d3)nicotinamide] gave a pIC50 (TYK2-JH2 domain) of 9.11, a JAK1/TYK2 selectivity (TYK2-JH2 domain) of 24.33 and a pIC50 (JAK1-JH2 domain) of 7.72. For the same compound, the GI50 [1] was 232 nM.

With [2H]C([2H])([2H])NC(=O)c1cnc(NC(=O)C2CC2)cc1Nc1ncc2ncn(CC)c2c1OC [Example 260, 6-(Cyclopropanecarboxamido)-4-((1-ethyl-7-methoxy-1H-imidazo[4,5-c]pyridin-6-yl)amino)-N-(methyl-d3)nicotinamide] the pIC50 (TYK2-JH2 domain) was 9.91, the JAK1/TYK2 selectivity (TYK2-JH2 domain) was 78.9 and the pIC50 (JAK1-JH2 domain) was 8.01. The GI50 [1] was 143 nM.

In the case of [2H]C([2H])([2H])NC(=O)c1cnc(NC(=O)C2CCC2)cc1Nc1ccc2cnn(CC)c2c1OC [Example 242, 6-(Cyclobutanecarboxamido)-4-((1-ethyl-7-methoxy-1H-indazol-6-yl)amino)-N-(methyl-d3)nicotinamide], the pIC50 (TYK2-JH2 domain) was 8.93, the JAK1/TYK2 selectivity (TYK2-JH2 domain) was 38.5 and the pIC50 (JAK1-JH2 domain) was 7.34. For the same compound, the GI50 [1] was 404 nM.

[2H]C([2H])([2H])NC(=O)c1cnc(NC(=O)C2CC2)cc1Nc1ccn2ncc(C(C)C#N)c2c1OC (centres unmarked) [Example 251, 4-((3-(1-Cyanoethyl)-4-methoxypyrazolo[1,5-a]pyridin-5-yl)amino)-6-(cyclopropanecarboxamido)-N-(methyl-d3)nicotinamide] showed a pIC50 (TYK2-JH2 domain) of 9.52, a JAK1/TYK2 selectivity (TYK2-JH2 domain) of 18.32 and a pIC50 (JAK1-JH2 domain) of 8.25. The GI50 [1] was 117 nM.

Compound [2H]C([2H])([2H])NC(=O)c1cnc(NC(=O)C2CC2)cc1Nc1cn(CC(F)(F)F)c2ccn(CC)c(=O)c12 [Example 209, 6-(Cyclopropanecarboxamido)-4-((5-ethyl-4-oxo-1-(2,2,2-trifluoroethyl)-4,5-dihydro-1H-pyrrolo[3,2-c]pyridin-3-yl)amino)-N-(methyl-d3)nicotinamide] has a pIC50 (TYK2-JH2 domain) of 9.80, a JAK1/TYK2 selectivity (TYK2-JH2 domain) of 70.8 and a pIC50 (JAK1-JH2 domain) of 7.95. For the same compound, the GI50 [1] was 52.6 nM.

[2H]C([2H])([2H])NC(=O)c1cnc(NC(=O)C2CC2)cc1Nc1nn(CCC)c2ccn(CC(F)(F)F)c(=O)c12 [Example 208, 6-(Cyclopropanecarboxamido)-N-(methyl-d3)-4-((4-oxo-1-propyl-5-(2,2,2-trifluoroethyl)-4,5-dihydro-1H-pyrazolo[4,3-c]pyridin-3-yl)amino)nicotinamide] gave a pIC50 (TYK2-JH2 domain) of 9.61, a JAK1/TYK2 selectivity (TYK2-JH2 domain) of 140.1 and a pIC50 (JAK1-JH2 domain) of 7.46. For the same compound, the GI50 [1] was 64.6 nM.

Work on [2H]C([2H])([2H])NC(=O)c1cnc(Nc2ccn(C)n2)cc1Nc1ccn2ncc(C)c2c1OC [Example 255, 4-((4-Methoxy-3-methylpyrazolo[1,5-a]pyridin-5-yl)amino)-N-(methyl-d3)-6-((1-methyl-1H-pyrazol-3-yl)amino)nicotinamide] yielded a pIC50 (TYK2-JH2 domain) of 9.49, a JAK1/TYK2 selectivity (TYK2-JH2 domain) of 13.7 and a pIC50 (JAK1-JH2 domain) of 8.35. The GI50 [1] was 116 nM.

Compound [2H]C([2H])([2H])NC(=O)c1cnc(NC(=O)C2CC2)cc1Nc1ncc2cnn(CC(C)(F)F)c2c1OC [Example 276, 6-(Cyclopropanecarboxamido)-4-((1-(2,2-difluoropropyl)-7-methoxy-1H-pyrazolo[4,3-c]pyridin-6-yl)amino)-N-(methyl-d3)nicotinamide] has a pIC50 (TYK2-JH2 domain) of 9.60, a JAK1/TYK2 selectivity (TYK2-JH2 domain) of 436.1 and a pIC50 (JAK1-JH2 domain) of 6.96. The GI50 [1] was 88.2 nM.

Work on [2H]C([2H])([2H])NC(=O)c1cnc(NC(=O)C2CC(C)C2)cc1Nc1ccc2cnn(CC)c2c1OC (centres unmarked) [Example 236, 4-((1-Ethyl-7-methoxy-1H-indazol-6-yl)amino)-N-(methyl-d3)-6-(3-methylcyclobutane-1-carboxamido)nicotinamide] yielded a pIC50 (TYK2-JH2 domain) of 9.01, a JAK1/TYK2 selectivity (TYK2-JH2 domain) of 45.2 and a pIC50 (JAK1-JH2 domain) of 7.36. The GI50 [1] was 892 nM.

[2H]C([2H])([2H])NC(=O)c1cnc(NC(=O)C2CC2)cc1Nc1ccn2ncc(C3CC3)c2c1OC [Example 250, 6-(Cyclopropanecarboxamido)-4-((3-cyclopropyl-4-methoxypyrazolo[1,5-a]pyridin-5-yl)amino)-N-(methyl-d3)nicotinamide] showed a pIC50 (TYK2-JH2 domain) of 9.63, a JAK1/TYK2 selectivity (TYK2-JH2 domain) of 30.19 and a pIC50 (JAK1-JH2 domain) of 8.15. It also gave a GI50 [1] of 160 nM.

In the case of [2H]C([2H])([2H])NC(=O)c1cnc(NC(=O)[C@@H]2C[C@H]2F)cc1Nc1ccc2cnn(CC)c2c1OC (relative stereo) [Example 241, 4-((1-Ethyl-7-methoxy-1H-indazol-6-yl)amino)-6-(trans-2-fluorocyclopropanecarboxamido)-N-(methyl-d3)nicotinamide], the pIC50 (TYK2-JH2 domain) was 9.27, the JAK1/TYK2 selectivity (TYK2-JH2 domain) was 28.7 and the pIC50 (JAK1-JH2 domain) was 7.81. For the same compound, the GI50 [1] was 161 nM.

For CCNC(=O)c1cnc(NC(=O)C2CC2)cc1Nc1ccc2cnn(CC)c2c1OC [Example 97, 6-(Cyclopropanecarboxamido)-N-ethyl-4-((1-ethyl-7-methoxy-1H-indazol-6-yl)amino)nicotinamide], the pIC50 (TYK2-JH2 domain) was 8.36, the pIC50 (JAK1-JH2 domain) was < 6.53 and the GI50 [1] was 1270 nM.
